# Reference: US12157745B2, “Heterocyclic systems and pharmaceutical compositions thereof” (University of Sharjah, priority 2018, dated 2024)
# Tests used:
# SKBr3 cells = test: Apoptosis study (western blot, caspase-3 activation); assay type: cell-based; details: multi-drug resistant breast cancer cells SKBr3
# Experimental: Apoptosis studies: The molecular effect of compound it was evaluated by investigating its apoptotic (FIG. 5) and cell cycle arresting potentials (FIGS. 6A and 6B). Compound it arrests the cells at G0/G1 phase in MCF-7 cells (>15%) with respect to control cells after 16, 24, 48, and 72 hours of treatment.
# (§1) The MCF-7, SKBR3 and HCT116 total cell lysate were prepared after 24 hours of treatment with compound it at IC50 and DIC50 doses by using 1× laemmli buffer. Total protein concentration was then estimated for each sample and 15-30 μg of protein lysate were loaded equally on 12% SDS-PAGE gel in order to detect various proteins expression levels. In short, the membrane was incubated with different primary antibodies (as mentioned in above section) (1:1000) overnight after blocking with 5% non-fat milk solution for 1 hour. The membrane was then re-probed with respective mouse/rabbit secondary antibodies (1:2000) for 1 h, and later developed by enhanced chemiluminescence (ECL) method by using a Chemidoc MP (BioRad, Germany).
# (§2) The apoptotic level was measured using a kit method as per supplier's protocol. […] 2×10^6 cells were counted and re-suspended in 1 mL of binding buffer (1×). […] 400 μL of IX binding buffer was finally added to the cells and analyzed immediately by using by a flow cytometer (BD, Accuri C6).
# transketolase = target: T1, transketolase (Homo sapiens, UniProt P29401); test: DARTS proteomic assay; assay type: binding; details: dose-dependent manner, FIG. 10
# T1 construct: HEK293T cells were lysed using M-PER; endogenous in cells; host or cells: HEK293T lysate
# T1 sequence (P29401 whole entry): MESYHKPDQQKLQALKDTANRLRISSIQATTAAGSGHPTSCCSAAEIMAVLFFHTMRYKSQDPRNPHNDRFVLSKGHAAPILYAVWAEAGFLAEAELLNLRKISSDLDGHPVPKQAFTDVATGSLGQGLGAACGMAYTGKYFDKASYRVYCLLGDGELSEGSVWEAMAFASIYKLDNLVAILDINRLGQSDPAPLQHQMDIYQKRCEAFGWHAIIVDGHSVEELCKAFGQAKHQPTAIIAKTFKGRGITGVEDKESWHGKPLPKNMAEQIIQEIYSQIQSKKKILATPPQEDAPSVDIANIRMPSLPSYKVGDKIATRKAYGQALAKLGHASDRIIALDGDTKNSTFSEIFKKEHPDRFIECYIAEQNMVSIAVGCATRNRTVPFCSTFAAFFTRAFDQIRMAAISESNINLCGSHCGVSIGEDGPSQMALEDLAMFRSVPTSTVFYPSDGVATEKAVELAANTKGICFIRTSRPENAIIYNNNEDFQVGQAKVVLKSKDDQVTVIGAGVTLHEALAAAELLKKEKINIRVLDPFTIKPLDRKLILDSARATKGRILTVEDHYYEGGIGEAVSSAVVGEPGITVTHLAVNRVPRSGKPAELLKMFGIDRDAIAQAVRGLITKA
# Excerpt: The unique properties of compound it prompted an in-depth analysis to explore its potential novel targets.
# As TKT reaction plays a pivotal role in pentose phosphate pathway, inhibition of TKT will suppress the pentose phosphate pathway and interrupt the synthesis of coenzymes, ATP, CoA, NAD(P)+, FAD, RNA, and DNA in cancer cells. The over-expressed TKT is reported in many cancer cells, tissues, and patients, wherein it regulates proliferation and viability. A strategy of silencing TKT has shown significant effect in reducing tumor burden in gastric cancer cells. Recent studies have shown that targeting TKT has clinical relevance in cancer therapy, as it can counteract the effect of oxidative stress, a critical factor in cancer development.
# A DARTS assay was used to assess the binding of compound 1t. HEK293T cells were lysed using M-PER (Thermo Scientific, Inc.) supplemented with protease and phosphatase inhibitors (Lysis buffer). 4.7 mg/mL of protein and TNC buffer (10 mM Tris, 140 mMNaCl, 5 mM CaCl2)) was added, compound it was diluted in DMSO to 3 different concentrations (0.01 μM, 0.1 μM, 1 μM) and incubated for one hour at room temperature. Trypsin (Promega) was added and incubated for 3 hours at 37° C. Thereafter, M-PER lysis buffer was added and the samples were concentrated with Microcon 10K centrifugal filters. […]
# [1] = system: Bid, Bax, caspase-3 & -9, Bcl-xL; test: Western blot and annexin V, pro- and anti-apoptotic proteins; assay type: cell-based; details: western blot, confirmed by annexin V study
# Experimental: Over-expression of this oncogene could result in tumor cell proliferation and migration and therefore its inhibition may halt tumor growth. Other pro-apoptotic (Bid, Bax, caspase-3 & -9) and anti-apoptotic (Bcl-xL) proteins were also modulated by compound it as evident from western blot analysis and as confirmed by annexin V study (FIG. 7).
# as §1, §2
# p53 = test: Western blot, p53 expression; assay type: cell-based; details: breast cancer cells
# Experimental: as §1
# tubulin = test: Tubulin polymerization / microtubule formation (immunofluorescence and kit method); assay type: cell-based; details: in comparison to colchicine and taxol (positive controls); FIGS. 4A and 4B
# Experimental: (§3) Cell synchronization and tubulin study: The antiproliferative effect of the compound it was tested on MCF7 cells which were synchronized at specific phases of the cell cycle. […] One way of inhibiting cell proliferation in G2/M phase is by altering equilibrium between polymerization and depolymerization of microtubule proteins which is required for active mitotic cell division.
# An immunofluorescence method is used for detecting tubulin polymerization effect of compound 1t. The cells (5×10^4/well) were plated overnight on coverslips on a six well plate and treated with IC50 concentration of compound 1t, taxol and colchicine for 24 hours. After treatment, the cells were rinsed twice with PBS, fixed with 3.7% paraformaldehyde, and permeabilized with 0.1% Triton X-100. The cells were then blocked with 1% BSA in PBS for 1 hour before further incubation with anti-p-tubulin mouse monoclonal antibody overnight at 4° C. (Cell Signaling, San Francisco, CA). […]
# Tubulin polymerization was measured in vitro using the Tubulin Polymerization Assay kit (Cytoskeleton, Denver, CO). […] The polymerization of tubulin was monitored as fluorescence at 37° C. for 60 min, and the reading speed was programmed at 1 cycle/min with excitation and emission wavelengths of 360 and 450 nm, respectively, using the Varioskan® Flash spectral scanning multimode reader (Thermo Fisher Scientific™). […]
# MCF7 cells = test: Cell synchronization study, antiproliferative effect on synchronized cells; assay type: cell-based
# Experimental: as §3
compound,measurement,setting,value
CC1(C)[C@H]2COc3ccc4ccccc4c3[C@H]2N=C2SC(c3ccccc3)=C(c3ccccc3)N21 [Compound 1t],Apoptotic induction,SKBr3 cells,mitochondrial-mediated apoptotic induction with caspase-3 activation
same,Affinity on transketolase,transketolase,strong affinity
same,"Pro-apoptotic (Bid, Bax, caspase-3 & -9) and anti-apoptotic (Bcl-xL) proteins",[1],modulated
same,Expression of p53,p53,up-regulation
same,Inhibition of microtubule formation,tubulin,strong inhibition
same,Sensitivity of G2/M-arrested cells versus asynchronous cells,MCF7 cells; MCF7 cells synchronized at specific phases of the cell cycle,more sensitive
same,Cells arrested at G2/M phase,MCF7 cells; synchronized MCF7 cells,18.5%
